According to publication PMC4721923 (PLoS ONE, 2015):
Like-named read-outs stand apart in the source and are kept apart here.

Tests used:
[1] = test system: Capan-1 cells (pancreatic adenocarcinoma); assay: Chemosensitivity assay (crystal violet assay), Capan-1; format: cell-based, human; conditions: 96 hours of incubation, mean ± SEM
Method: (§1) Depending on the characteristics of the cells, two different assays were performed. For adherently growing cells (HaCaT, HT-29, NCI-H460, SK-MEL-3, MG-63, Capan-1), cytotoxic and cytocidal effects were determined in the crystal violet assay, whereas for loosely adherent cells (LNCaP, SK-ES-1) and cells growing in suspension (HEL 92.1.7, Jurkat, U-937) the MTT-assay was used with minor modifications. In brief, 1.5 · 10^3 (HaCaT, HT-29, NCI-H460, SK-MEL-3, MG-63, Capan-1) or 5 · 10^3 (Jurkat, U-937, HEL92.1.7, LNCaP, SK-ES-1) cells per well were seeded into flat-bottom 96-well plates (Sarstedt, Nümbrecht, Germany). All compounds were used as solutions prepared in DMSO and tested at final concentrations (8 replicates per concentration) of 1, 3, 10, 30 and 50 μM. In case of the vehicle control and test compounds, the final DMSO concentration amounted to 0.1%. Absorbance was measured at 580 nm in a 96-well plate reader (GENios pro microplate reader, Tecan, Salzburg, Austria). Effects were quantified as previously described for both assays.

[2] = test system: NCI-H460 cells (large cell lung cancer); assay: Chemosensitivity assay (crystal violet assay), NCI-H460; format: cell-based, human; conditions: 96 hours of incubation, mean ± SEM
Method: as §1

[3] = test system: U-937 cells (histiocytic lymphoma); assay: Chemosensitivity assay (MTT-assay), U-937; format: cell-based, human; conditions: 96 hours of incubation, mean ± SEM
Method: as §1

NCI-H460 cells [4] = assay: Stability in the presence of cells (HPLC); format: in vitro ADME, human; conditions: incubation period of 10 minutes
Method: The recently reported validated HPLC method was applied.
Samples were measured immediately before the incubation (t = 0 minutes) and after 10 minutes of incubation at 25°C (t = 10 minutes). […] (TIF) Click here for additional data file.

[5] = test system: LNCaP cells (prostate cancer); assay: Chemosensitivity assay (MTT-assay), LNCaP; format: cell-based, human; conditions: 96 hours of incubation, mean ± SEM
Method: as §1

NCI-H460 cells [6] = assay: Quantification of cell-associated compound by HPLC, NCI-H460; format: cell-based, human; conditions: 30 μM, 10 minutes, mean ± SEM
Method: Accumulation of bendamustine and selected bendamustine esters by HT-29 and NCI-H460 cells was determined by HPLC. For this purpose, 1.5 · 10^6 cells/well were seeded into 6-well plates (Sarstedt, Nümbrecht, Germany). After two days of cultivation, the cells were incubated in PBS containing 30 μM of 1, 2, 4 or 5 and 200 μM of umbelliferone as internal standard at 37°C for 10 minutes. After removing the medium, the cells were washed three times with PBS. Untreated cells were detached with trypsin/EDTA and counted. The treated cells were harvested by adding 200 μL of ice-cold perchloric acid (1 M) and scraping. Subsequently, the samples were vortexed and sonicated (Branson 3200 ultrasonic cleaner; Branson, Danbury, USA) for 10 minutes. After 5 minutes of centrifugation (13000 g, 4°C), the supernatants were filtered (0.2 μm Phenex; Phenomenex, Aschaffenburg, Germany) and directly analyzed by HPLC with fluorescence detection according to a recently reported validated procedure. The normalization of the measured concentration to the cell count allowed for a calculation of the cell-associated amount of the respective test compound. Additionally, the ratio of cell-associated substance compared to the applied concentration (30 μM) was calculated based on an average cell volume of 3 pL.

[7] = test system: SK-ES-1 cells (Ewing's sarcoma); assay: Chemosensitivity assay (MTT-assay), SK-ES-1; format: cell-based, human; conditions: 96 hours of incubation, mean ± SEM
Method: as §1

p53 in NCI-H460 cells = assay: p53 expression by immunoblotting, NCI-H460; format: cell-based, human; conditions: NCI-H460 nuclear extracts, 24 hours
Method: The expression of the tumor suppressor p53 by NCI-H460 and HT-29 cells was determined after incubating the cells with compounds 1, 2, 4 and 5 at different concentrations for 24 hours. The cells (from a 10-cm culture dish, 70% confluency) were washed twice with PBS and harvested by scraping after addition of ice-cold buffer A (10 mM HEPES pH = 7.9, 10 mM KCl, 0.1 mM EDTA, 0.1 mM EGTA, protease inhibitor mix (Sigma-Aldrich)). After adding Nonidet P-40 (NP-40) (Sigma, Taufkirchen, Germany) to a final concentration of 1%, the cell suspensions were vortexed and subsequently centrifuged at 13000 g and 4°C for 30 seconds. The pellets were re-suspended in buffer B (buffer A + 400 mM NaCl, 1% NP-40) and gently agitated using a Sarmix M2000 (Sarstedt, Nümbrecht, Germany) at 4°C for 15 min, followed by centrifugation (13000 g, 4°C, 5 min; Microfuge; Eppendorf, Hamburg, Germany). The concentration of soluble protein was determined according to Bradford using the Bio-Rad Protein Assay (Bio-Rad Laboratories, Munich, Germany).
An amount of 30 μg total protein of each sample and 8 μL of a biotinylated molecular weight standard (1:6 dilution) (Cell Signaling, Danvers, MA, USA) was separated by SDS-PAGE (12% gel) and afterwards electroblotted (150 V, 30 min) to nitrocellulose membrane (Peqlab, Erlangen, Germany). To prevent unspecific binding, the membranes were treated with milk powder (5% (m/v) in buffer (150 mM NaCl, 20 mM Tris, 0.1% Tween 20, pH = 7.6)) before incubation with anti-p53 rabbit mAb (dilution 1:1000) (Cell Signaling) and anti-histone H2B Ab (dilution 1:1000) (Cell Signaling) as loading control at 4°C for 14 hours. The primary antibodies and the “protein ladder” were simultaneously detected with a horseradish peroxidase (HRP)-coupled donkey anti rabbit mAb (dilution 1:1000) (Santa Cruz biotechnology, Heidelberg, Germany) or the anti-biotin HRP-coupled antibody (dilution 1:5000) (Cell Signaling), respectively. The incubation with the secondary antibody was performed at room temperature for 1 hour. The bands were detected by […] using the Pierce ECL Western Blotting Substrate (Thermo Scientific, Dreieich, Germany). After exposure, the x-ray film (Amersham Hyperfilm ECL, GE Healthcare, München, Germany) was developed (CAWOMAT 2000 IR, CAWO, Schrobenhausen, Germany) and analyzed using a GS-710 imaging densitometer and Quantity One V. 4 software (Bio-Rad Laboratories, Munich, Germany).

[8] = test system: SK-MEL-3 cells (malignant melanoma); assay: Chemosensitivity assay (crystal violet assay), SK-MEL-3; format: cell-based, human; conditions: mean ± SEM
Method: as §1

[9] = Homo sapiens, SK-MEL3, 96 hours of incubation, read-out: IC50

Row | SMILES | IC50 [1] [nM] | IC50 ([1]; Homo sapiens, CAPAN-1, 96 h) [nM] | IC50 [2] | IC50 ([2]; Homo sapiens, read-out: IC50) [µM] | IC50 [3] [µM] | IC50 ([3]; Homo sapiens, U-937, 96 h) [µM] | stability in the presence of cells (NCI-H460 cells [4]) | IC50 [5] | IC50 ([5]; Homo sapiens, read-out: IC50) [nM] | amount of cell-associated compound (NCI-H460 cells [6]) [nmol/10^6 cells] | IC50 [7] [nM] | IC50 ([7]; Homo sapiens, SK-ES1, 96 h) [nM] | p53 expression (p53 in NCI-H460 cells; 100 μM) | IC50 ([8]; 96 hours of incubation) | IC50 [8, 9] [µM] | p53 expression (p53 in NCI-H460 cells; 10 μM)
1 | Cn1c(CCCC(=O)O)nc2cc(N(CCCl)CCCl)ccc21 [Compound 1, bendamustine, reference compound] | 18900 ± 4500 | < 20000 | only very weakly active | 90 ± 4.3 | 83.4 ± 8.5 | > 80 | Other decomposition products were not detected | only very weakly active | 77900 ± 5600 | 0.03 ± 0.001 | 9600 ± 300 | ~10000 | weakly induced | ineffective | > 100 | –
2 | COC(=O)CCCc1nc2cc(N(CCCl)CCCl)ccc2n1C [Compound 2] | – | 600 ± 40 | – | 4.8 ± 0.3 | – | 1.8 ± 0.1 | Other decomposition products were not detected | – | 950 ± 150 | 0.28 ± 0.06 | 180 ± 20 | ~200 | – | – | 13.8 ± 0.4 | significantly induced
3 | Cn1c(CCCC(=O)OCCN2CCOCC2)nc2cc(N(CCCl)CCCl)ccc21 [Compound 4] | – | 1400 ± 10 | – | 9.7 ± 1.3 | – | 3.2 ± 0.96 | Other decomposition products were not detected | – | 2200 ± 100 | 0.59 ± 0.04 | 910 ± 80 | 900 | – | – | 20.9 ± 0.9 | significantly induced
4 | Cn1c(CCCC(=O)OCCN2CCCC2)nc2cc(N(CCCl)CCCl)ccc21 [Compound 5] | – | 120 ± 20 | – | 0.9 ± 0.01 | – | 0.83 ± 0.19 | Other decomposition products were not detected | – | 500 ± 80 | 1.89 ± 0.14 | – | 90 ± 10 | – | – | 0.83 ± 0.18 | significantly induced
